Laboratory results as given in PubChem BioAssay AID1963973 (Molecular Pharmacology Branch, DTP, NCI, 2024).

Test system: 883617-216-R-J1-PDC tumor spheroids, viability
Test: Anticancer human tumor 883617-216-R-J1-PDC patient-derived bladder carcinoma cell line growth inhibition [PI3K]
Conditions: spheroids with HUVEC and MSC; for viability, T/C: stronger effect = lower value
How it was run: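 Combination activity was assessed by viability in multicellular tumor spheroids carrying HUVEC and MSC components. Agents were tested with PI3K inhibitors from a Cmax-based top dose (or 10 microM) downward in half-log increments.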

[1] = curve of first compound, second compound 0.00316 µM
[2] = curve of first compound, second compound 0.01 µM
[3] = curve of first compound, second compound 0.0316 µM
[4] = curve of first compound, second compound 0.1 µM
[5] = curve of first compound, second compound 0.316 µM
[6] = curve of first compound, second compound 1 µM
[7] = second compound 0.00316 µM, first compound 0.0316 µM
[8] = second compound 0.00316 µM, first compound 0.1 µM
[9] = second compound 0.00316 µM, first compound 0.316 µM
[10] = second compound 0.00316 µM, first compound 1 µM
[11] = second compound 0.00316 µM, first compound 3.16 µM
[12] = second compound 0.00316 µM, first compound 10 µM
[13] = second compound 0.01 µM, first compound 0.0316 µM
[14] = second compound 0.01 µM, first compound 0.1 µM
[15] = second compound 0.01 µM, first compound 0.316 µM
[16] = second compound 0.01 µM, first compound 1 µM
[17] = second compound 0.01 µM, first compound 3.16 µM
[18] = second compound 0.01 µM, first compound 10 µM
[19] = second compound 0.0316 µM, first compound 0.0316 µM
[20] = second compound 0.0316 µM, first compound 0.1 µM
[21] = second compound 0.0316 µM, first compound 0.316 µM
[22] = second compound 0.0316 µM, first compound 1 µM
[23] = second compound 0.0316 µM, first compound 3.16 µM
[24] = second compound 0.0316 µM, first compound 10 µM
[25] = second compound 0.1 µM, first compound 0.0316 µM
[26] = second compound 0.1 µM, first compound 0.1 µM
[27] = second compound 0.1 µM, first compound 0.316 µM
[28] = second compound 0.1 µM, first compound 1 µM
[29] = second compound 0.1 µM, first compound 3.16 µM
[30] = second compound 0.1 µM, first compound 10 µM
[31] = second compound 0.316 µM, first compound 0.0316 µM
[32] = second compound 0.316 µM, first compound 0.1 µM
[33] = second compound 0.316 µM, first compound 0.316 µM
[34] = second compound 0.316 µM, first compound 1 µM
[35] = second compound 0.316 µM, first compound 3.16 µM
[36] = second compound 0.316 µM, first compound 10 µM
[37] = second compound 1 µM, first compound 0.0316 µM
[38] = second compound 1 µM, first compound 0.1 µM
[39] = second compound 1 µM, first compound 0.316 µM
[40] = second compound 1 µM, first compound 1 µM
[41] = second compound 1 µM, first compound 3.16 µM
[42] = second compound 1 µM, first compound 10 µM
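Further: spheroids exposed to agents for 7 days before the viability read.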

C#Cc1c(F)ccc2cc(O)cc(-c3ncc4c(N5CC6CCC(C5)N6)nc(OCC56CCCN5CC(F)C6)nc4c3F)c12 (stereo not drawn) + COc1c(OCCCN2CCOCC2)ccc2c3n(c(=NC(=O)c4cnc(N)nc4)nc12)CCN3
IC50 [1]: > 10000 nM | IC50 [2]: 4880 nM | IC50 [3]: < 31.6 nM | IC50 [4]: < 31.6 nM | IC50 [5]: < 31.6 nM | IC50 [6]: < 31.6 nM | viability, T/C [7]: 84.7% | viability, T/C [8]: 99.8% | viability, T/C [9]: 88.7% | viability, T/C [10]: 91.3% | viability, T/C [11]: 80% | viability, T/C [12]: 52.1% | viability, T/C [13]: 64.1% | viability, T/C [14]: 64.8% | viability, T/C [15]: 78.9% | viability, T/C [16]: 67.4% | viability, T/C [17]: 55.5% | viability, T/C [18]: 41% | viability, T/C [19]: 37% | viability, T/C [20]: 45.5% | viability, T/C [21]: 34.4% | viability, T/C [22]: 34% | viability, T/C [23]: 33.6% | viability, T/C [24]: 22.8% | viability, T/C [25]: 16.4% | viability, T/C [26]: 17.1% | viability, T/C [27]: 14.6% | viability, T/C [28]: 15.6% | viability, T/C [29]: 12.2% | viability, T/C [30]: 11.4% | viability, T/C [31]: 5.31% | viability, T/C [32]: 5% | viability, T/C [33]: 4.47% | viability, T/C [34]: 4.9% | viability, T/C [35]: 3.89% | viability, T/C [36]: 2.71% | viability, T/C [37]: 3.49% | viability, T/C [38]: 3.22% | viability, T/C [39]: 2.69% | viability, T/C [40]: 2.82% | viability, T/C [41]: 2.98% | viability, T/C [42]: 0.66%

CC1(C)CCC(Nc2ncc(C(F)(F)F)c(-c3c[nH]c4c(P(C)(C)=O)c(C#N)ccc34)n2)CN1 (stereo not drawn)
viability, T/C (compound 0.0316 µM): 38% [middle of 4 runs] | viability, T/C (compound 0.1 µM): 31.7% [middle of 4 runs] | viability, T/C (compound 0.316 µM): 28.7% [middle of 4 runs] | viability, T/C (compound 1 µM): 30% [middle of 4 runs] | viability, T/C (compound 3.16 µM): 16.9% [middle of 4 runs] | viability, T/C (compound 10 µM): 0.37% [middle of 4 runs] | IC50 (curve of compound): < 31.6 nM

CCCS(=O)(=O)Nc1ccc(F)c(C(=O)c2c[nH]c3ncc(-c4ccc(Cl)cc4)cc23)c1F + CC(Nc1ccc2c(c1)OCCn1cc(N3C(=O)OCC3C(F)F)nc1-2)C(N)=O
IC50 [1]: 4590 nM | IC50 [2]: 4710 nM | IC50 [3]: 4240 nM | IC50 [4]: < 31.6 nM | IC50 [5]: < 31.6 nM | IC50 [6]: < 31.6 nM | viability, T/C [7]: 91.2% | viability, T/C [8]: 90.9% | viability, T/C [9]: 89% | viability, T/C [10]: 100% | viability, T/C [11]: 70.2% | viability, T/C [12]: 8.07% | viability, T/C [13]: 87.3% | viability, T/C [14]: 90% | viability, T/C [15]: 89.5% | viability, T/C [16]: 93.9% | viability, T/C [17]: 70.3% | viability, T/C [18]: 11.9% | viability, T/C [19]: 68.5% | viability, T/C [20]: 64.3% | viability, T/C [21]: 64.4% | viability, T/C [22]: 66.8% | viability, T/C [23]: 63.7% | viability, T/C [24]: 9.98% | viability, T/C [25]: 36.1% | viability, T/C [26]: 42.6% | viability, T/C [27]: 43.9% | viability, T/C [28]: 48.2% | viability, T/C [29]: 38.7% | viability, T/C [30]: 12.2% | viability, T/C [31]: 29% | viability, T/C [32]: 23.8% | viability, T/C [33]: 28.5% | viability, T/C [34]: 28.2% | viability, T/C [35]: 26.6% | viability, T/C [36]: 11% | viability, T/C [37]: 15.2% | viability, T/C [38]: 15% | viability, T/C [39]: 17% | viability, T/C [40]: 23% | viability, T/C [41]: 20.7% | viability, T/C [42]: 8.33%

Cn1ncnc1[C@H]1c2n[nH]c(=O)c3cc(F)cc(c23)N[C@@H]1c1ccc(F)cc1 + Cc1nc(NC(=O)N2CCCC2C(N)=O)sc1-c1ccnc(C(C)(C)C(F)(F)F)c1
IC50 [3]: > 100 nM | IC50 [4]: > 100 nM | IC50 [5]: < 0.316 nM | IC50 [6]: < 0.316 nM | IC50 (curve of first compound, second compound 3.16 µM): < 0.316 nM | IC50 (curve of first compound, second compound 10 µM): < 0.316 nM | viability, T/C (second compound 0.0316 µM, first compound 0.000316 µM): 88.1% | viability, T/C (second compound 0.0316 µM, first compound 0.001 µM): 74% | viability, T/C (second compound 0.0316 µM, first compound 0.00316 µM): 68.2% | viability, T/C (second compound 0.0316 µM, first compound 0.01 µM): 68.5% | viability, T/C [19]: 64.8% | viability, T/C [20]: 52.9% | viability, T/C (second compound 0.1 µM, first compound 0.000316 µM): 66.9% | viability, T/C (second compound 0.1 µM, first compound 0.001 µM): 67.4% | viability, T/C (second compound 0.1 µM, first compound 0.00316 µM): 65.7% | viability, T/C (second compound 0.1 µM, first compound 0.01 µM): 52.4% | viability, T/C [25]: 54.9% | viability, T/C [26]: 52% | viability, T/C (second compound 0.316 µM, first compound 0.000316 µM): 43.5% | viability, T/C (second compound 0.316 µM, first compound 0.001 µM): 47.3% | viability, T/C (second compound 0.316 µM, first compound 0.00316 µM): 49.5% | viability, T/C (second compound 0.316 µM, first compound 0.01 µM): 45.5% | viability, T/C [31]: 35.4% | viability, T/C [32]: 34.9% | viability, T/C (second compound 1 µM, first compound 0.000316 µM): 27.5% | viability, T/C (second compound 1 µM, first compound 0.001 µM): 31.6% | viability, T/C (second compound 1 µM, first compound 0.00316 µM): 23.1% | viability, T/C (second compound 1 µM, first compound 0.01 µM): 26.2% | viability, T/C [37]: 27.2% | viability, T/C [38]: 21.3% | viability, T/C (second compound 3.16 µM, first compound 0.000316 µM): 16% | viability, T/C (second compound 3.16 µM, first compound 0.001 µM): 16.1% | viability, T/C (second compound 3.16 µM, first compound 0.00316 µM): 12% | viability, T/C (second compound 3.16 µM, first compound 0.01 µM): 13% | viability, T/C (second compound 3.16 µM, first compound 0.0316 µM): 14.1% | viability, T/C (second compound 3.16 µM, first compound 0.1 µM): 12% | viability, T/C (second compound 10 µM, first compound 0.000316 µM): 7.59% | viability, T/C (second compound 10 µM, first compound 0.001 µM): 8.2% | viability, T/C (second compound 10 µM, first compound 0.00316 µM): 6.62% | viability, T/C (second compound 10 µM, first compound 0.01 µM): 6.95% | viability, T/C (second compound 10 µM, first compound 0.0316 µM): 7.18% | viability, T/C (second compound 10 µM, first compound 0.1 µM): 5.36%
